# Experiments:
# Plasmodium falciparum = assay: (§1) MMV: Thermal shift assay for identifying inhibitors; conditions: 3D7
# Leishmania donovani = assay: as §1
ΔTm (Plasmodium falciparum) [°C],ΔTm (Leishmania donovani) [°C],SMILES
12.4,,CCN(Cc1ccccc1)C1CCN(Cc2cc(Br)ccc2O)CC1
3.6,,O=C(Nc1ccc(Br)cc1)Nc1cccc(Cl)c1
,2.4,COc1ccc(C(=O)NC(c2ccc(Cl)cc2Cl)c2cc(Cl)c3cccnc3c2O)cc1 (centres undefined)
3.7,,FC(F)(F)c1cccc(Nc2nc(-c3ccccc3)nc3ncccc23)c1
2.5,,COc1cccc(C(=O)Nc2ccc(-c3nc4ccccc4[nH]3)cc2)c1
2.4,,Cc1ccc(NC(=O)Nc2cccc(Cl)c2)cc1F
2.6,,COc1cc(OC)cc(C(=O)Nc2ccc(-c3nc4ccccc4[nH]3)cc2)c1
2.3,,CCN(CC)CCNc1ncnc2c1[nH]c1ccc(Cl)cc12
3.1,,CCOC(=O)c1cnc2ccc(Cl)cc2c1NCCCN(C)C
,2.4,O=C(NC1CCN(Cc2ccccc2)CC1)c1cc(-c2cccnc2)nc2ccc(Cl)cc12
12.7,,Cc1cccc(-n2ncc3c(O)nc(-n4nc(C)cc4NC(=O)c4cc5ccccc5o4)nc32)c1
4.1,,CCN(CC)CCCNc1nc(-c2ccc(Cl)cc2)nc2ccccc12
5.4,,COc1ccc(C=C2SC(=N)N(c3ccccc3OC)C2=O)cc1
,4.8,COc1cc(C(=O)Nc2ccc(-c3nc4ccccc4[nH]3)cc2)cc(OC)c1OC
,2.2,Cc1cc(C)cc(Nc2cc(C)nc3nc(C(F)(F)F)nn23)c1
,3.3,CCOc1cc2c(cc1OCC)C(c1cc(C)c(O)c(C)c1)NCC2 (centres undefined)
2.9,,CCOc1cccc(C(=O)Nc2ccc(-c3nc4ccccc4[nH]3)cc2)c1

ΔTm (Plasmodium falciparum) [°C],ΔTm (Leishmania donovani) [°C],SMILES
2.7,,COc1cc2cc(C(=O)Nc3ccccc3)c(N)nc2cc1OC
7.5,,COc1ccc2c(c1)OC(O)(C(F)(F)C(F)(F)F)CC2=O (centres undefined)
,2.5,CCOc1ccc(C2N(C)c3ccccc3N2C)cc1
2.5,,FC(F)(F)c1cccc(Nc2nc3ccccc3nc2Nc2cccc(C(F)(F)F)c2)c1
2,,CCC(O)c1ccc(Br)cc1NC(=O)c1cccc(Cl)c1 (centres undefined)
2.2,,O=C(Nc1ccccc1O)c1ccc(Oc2cccc(C(=O)Nc3ccccc3O)c2)cc1
3.1,,O=c1cc(NC2CCN(CCCc3ccccc3)CC2)c2cc(Cl)ccc2o1
2.2,,CC1CCN(Cc2ccc(NC(=O)c3cc4ccc5cccnc5c4[nH]3)cc2)CC1
,4,Cc1ccc(Nc2nc(N)c3ccccc3n2)cc1Cl
2.4,,COc1ccc(Nc2nc(NCc3ccccc3)c3ccccc3n2)cc1
3,,O=C(NC1CCN(Cc2ccccc2)CC1)c1cc(-c2ccncc2)nc2ccc(Cl)cc12
2,,CCCN(CCC)CCCNC(=O)c1cc2c(-c3ccc(OC)c(OC)c3)nn(C)c2s1
2.4,,CC1CCCCN1CCCNC(=O)c1ccc2c(c1)sc1nc(-c3ccc(F)cc3)cn12 (centres undefined)
2,,COc1cccc(Nc2nc(NCCO)c3ccccc3n2)c1
2.3,,CC(C)(C)C(=O)Nc1ccc(C(=O)Nc2cccc(-c3nc4ccccc4[nH]3)c2)cc1
2.1,,Cc1sc2ncnc(Sc3nc4ccccc4[nH]3)c2c1C
2.2,,COc1ccc(-c2cc(=O)oc3c4c(ccc23)OCN(Cc2ccc(F)cc2)C4)cc1

# Reference: ChEMBL document CHEMBL3301461, “MMV Malaria Box thermal shift screening” (2015)
